Eight compounds from ChEMBL document CHEMBL4627339, “Structural motives controlling the binding affinity of 9,10-bis(methylpyridinium)anthracenes towards DNA” (Bioorg Med Chem, 2020) can be followed below.

What all share (assay type): nucleic-acid assay
Experiment [1] deals with Calf thymus DNA. The experiment in a line: Binding affinity to calf thymus DNA assessed as groove binding by measuring blue-shift in maximum emission intensity of compound by fluorescence spectroscopy. The following applies: Bos taurus.
Experiment [2] concerns Calf thymus DNA. The experiment in a line: Binding affinity to calf thymus DNA assessed as loss of vibronic fine structure at 50 uM by UV-Vis absorption spectroscopic method. The following applies: Bos taurus.
Experiment [3] deals with Calf thymus DNA. The experiment is described as follows: Binding affinity to calf thymus DNA assessed as binding constant by UV-Vis absorption spectroscopic method. To be noted: Bos taurus.
Experiment [4] concerns Poly(dA-dT)oligonucleotide. The experiment is described as follows: Binding affinity to poly(dA:dT) dsDNA (unknown origin) assessed as red shift in absorption maxima by UV-Vis spectroscopy.
Experiment [5] deals with Calf thymus DNA. The experiment in a line: Binding affinity to calf thymus DNA assessed as minor groove binding by measuring rise in absorbance at melting temperature between 76 and 77 degC by DNA melting studies based absorbance analysis. The following applies: Bos taurus.
Experiment [6] concerns Poly(dA-dT)oligonucleotide. The experiment in a line: Binding affinity to poly(dA:dT) dsDNA (unknown origin) assessed as increase in fluorescence intensity by fluorescence spectroscopy.
In experiment [7] the test system is Poly(dA-dT)oligonucleotide. The experiment in a line: Binding affinity to poly(dA:dT) dsDNA (unknown origin) assessed as increase in intensity with one ligand binding for two base pairs by UV-Vis spectroscopy.
Experiment [8] deals with Poly(dA-dT)oligonucleotide. The experiment in a line: Binding affinity to poly(dA:dT) dsDNA (unknown origin) assessed as binding constant by fluorescence spectroscopy.
In experiment [9] the test system is Poly(dG-dC)oligonucleotide. The experiment in a line: Binding affinity to poly(dG:dC) dsDNA (unknown origin) assessed as red shift in absorption maxima by UV-Vis spectroscopy.
The subject of experiment [10] is Calf thymus DNA. The experiment in a line: Binding affinity to calf thymus DNA assessed as hypochromism at 50 uM by UV-Vis spectroscopy relative to control. The following applies: Bos taurus.
Experiment [11] deals with Calf thymus DNA. The experiment is described as follows: Binding affinity to calf thymus DNA assessed as groove binding by measuring spectral changes up to compound:base pair concentration ratio of 1:39 in presence of 300 mM NaCl by UV-Vis spectroscopic method. To be noted: Bos taurus.
In experiment [12] the test system is Calf thymus DNA. The experiment in a line: Binding affinity to calf thymus DNA assessed as groove binding by measuring induced circular dichroism with negative signs around 370-380 nm by CD spectroscopy. To be noted: Bos taurus. (Circular dichroism is widely used to follow secondary structure.)
Experiment [13] concerns Poly(dG-dC)oligonucleotide. The experiment in a line: Binding affinity to poly(dG:dC) dsDNA (unknown origin) assessed as increase in fluorescence intensity by fluorescence spectroscopy.
Experiment [14] deals with Calf thymus DNA. The experiment in a line: Binding affinity to calf thymus DNA assessed as DNA intercalation by measuring helix stabilization by DNA melting studies based absorbance analysis. To be noted: Bos taurus.
The test system of experiment [15] is Calf thymus DNA. The experiment is described as follows: Binding affinity to calf thymus DNA assessed as bathochromic shift in maximum absorption at 50 uM by UV-Vis absorption spectroscopic method. To be noted: Bos taurus.

The structures appear in SMILES notation. Activity calls are given as the source filed them. No cut-off for these calls is given here.

As to `C[n+]1ccc(-c2c3ccccc3c(-c3cc[n+](C)cc3)c3ccccc23)cc1`, the outcome (in the experiment on Calf thymus DNA [1]; in the experiment with Calf thymus DNA [2]; in experiment [4]; in the experiment on Calf thymus DNA [5]; in experiment [6]; in [7]) was Active. Further, the outcome in the experiment on Calf thymus DNA [11], in the experiment on Calf thymus DNA [12] and in the experiment with Calf thymus DNA [15] was Active. Also, the KB in the experiment on Calf thymus DNA [3] worked out at 8.4 ×10⁴ /M. Also, in experiment [8], the K was 1.6 ×10⁵ /M. Besides, the result (in experiment [9]; in experiment [13]; in the experiment on Calf thymus DNA [14]) was inactive. Also, the Activity with Calf thymus DNA [10] is 74%.
For `C[n+]1ccccc1-c1c2ccccc2c(-c2cccc[n+]2C)c2ccccc12`, the result (in the experiment with Calf thymus DNA [1]; in experiment [6]; in the experiment on Calf thymus DNA [12]; in the experiment on Calf thymus DNA [15]) was inactive.
For the compound `C[n+]1ccc(-c2c3ccccc3c(-c3cc[n+](C)cc3)c3cc(C(C)(C)C)ccc23)cc1`, the outcome (in the experiment on Calf thymus DNA [1]; with Calf thymus DNA [5]; in [6]; in the experiment on Calf thymus DNA [15]) was Active. Further, the KB in the experiment with Calf thymus DNA [3] was 7.3 ×10³ /M. Further, the Activity in the experiment on Calf thymus DNA [10] was 66%. Further, the result in the experiment on Calf thymus DNA [12] and in the experiment with Calf thymus DNA [14] was inactive.
Consider `Cc1ccc2c(-c3cc[n+](C)cc3)c3ccccc3c(-c3cc[n+](C)cc3)c2c1`, for which the result (with Calf thymus DNA [1]; in the experiment with Calf thymus DNA [5]; in experiment [6]; in the experiment with Calf thymus DNA [12]; in the experiment on Calf thymus DNA [15]) was Active. For the same compound, in the experiment with Calf thymus DNA [3], the KB is 6.2 ×10⁴ /M. Also, in experiment [8], the K was determined as 1 ×10⁵ /M. Besides, the Activity with Calf thymus DNA [10] was determined as 41%. Further, in the experiment on Calf thymus DNA [14], the result was inactive.
`C[n+]1cccc(-c2c3ccccc3c(-c3ccc[n+](C)c3)c3ccccc23)c1`: the outcome (with Calf thymus DNA [1]; in the experiment with Calf thymus DNA [5]; in experiment [6]; with Calf thymus DNA [12]; in the experiment on Calf thymus DNA [15]) was Active. For the same compound, the KB with Calf thymus DNA [3] was 1.8 ×10⁵ /M. Moreover, the Activity in the experiment on Calf thymus DNA [10] was determined as 41%. Besides, the result with Calf thymus DNA [14] was inactive.
As to `C[n+]1cc(-c2c3ccccc3c(-c3cc4ccccc4[n+](C)c3)c3ccccc23)cc2ccccc21`, the result (in the experiment on Calf thymus DNA [1]; in the experiment on Calf thymus DNA [5]; in experiment [6]; in the experiment with Calf thymus DNA [12]; in the experiment on Calf thymus DNA [15]) was Active. Also, the KB in the experiment on Calf thymus DNA [3] amounted to 2.8 ×10⁵ /M. The Activity with Calf thymus DNA [10] came out at 56%. Also, in the experiment on Calf thymus DNA [14], the result was inactive.
Consider `CCc1ccc2c(-c3cc[n+](C)cc3)c3ccccc3c(-c3cc[n+](C)cc3)c2c1`, for which the result (with Calf thymus DNA [1]; in the experiment with Calf thymus DNA [5]; in experiment [6]; in the experiment with Calf thymus DNA [12]; in the experiment on Calf thymus DNA [15]) was Active. Further, the KB in the experiment with Calf thymus DNA [3] turned out to be 1.2 ×10⁴ /M. For the same compound, the Activity with Calf thymus DNA [10] was 55%. In addition, in the experiment with Calf thymus DNA [14], the result was inactive.
As to `c1ccc2c(-c3ccncc3)c3ccccc3c(-c3ccncc3)c2c1`, the result in the experiment on Calf thymus DNA [15] was inactive.
